# Where “and” joins values, the source holds several entries; their conditions need not be identical. Identical values can stand only once. Entries after “also recorded” stand apart in the source; their conditions may differ. Like-named read-outs stand apart in the source and are kept apart here.
# Legend:
# [1] = system: P. falciparum in culture; assay: In vitro activity on P. falciparum in culture; assay type: cell-based; conditions: Plasmodium falciparum, read-out: LC50
# [2] = system: P. vinckei; assay: 4 day test in mice infected with P. vinckei; assay type: in vivo; conditions: intraperitoneal route, for 2 months
# [3] = system: E. coli GE864; assay: Mutagenicity, SOS response (DNA repair induction) in E. coli GE864; assay type: cell-based; conditions: E. coli GE864, 5, 10, 15 and 20 μM; control 3 μM mitomycin C
# [4] = Toxicity after administration to healthy mice; conditions: 100 mg/kg/day oral route, three consecutive days
# [5] = system: three Plasmodium falciparum strains; assay: Anti-malarial activity, summary over the Nigerian, FcB1 and FcM29 strains; assay type: cell-based; conditions: susceptible and resistant strains
# Description: (§1) The parasite populations are synchronised over a 4 hour period by flotation with a gelatine solution, followed by lysis with 5% D-sorbitol 7,8. […] The anti-malarial activity tests are performed using Desjardins' radioactive micromethod 11. The tests are performed in triplicate, in 96-well microplates, the readings being at 1% haematocrit and 0.5-1% parasitaemia. For each test, the parasites are incubated with decreasing concentrations of drug for either 32 hours and 72 hours (4 wells contain chloroquine diphosphate as a reference). […] The parasite growth is measured with the incorporation of tritiated hypoxanthine compared to incorporation in the absence of drug (taken to be 100%). 12 and the IC50 values are determined graphically by plotting the percentage of inhibition as a function of the drug concentration.
# [6] = system: P. falciparum FcB1-Colombia (chloroquine resistant strain); assay: Anti-malarial activity on P. falciparum FcB1-Colombia strain, tritiated hypoxanthine incorporation; assay type: cell-based, Plasmodium falciparum
# Description: The P. falciparum strains are cultured continuously according to Trager and Jensen's method 5, with the following modifications 6: the parasites are maintained in human red blood cells (O±), diluted to 1% haematocrit in RPMI 1640 medium supplemented with 25 mM Hepes+30 mM NaHCO3 and complemented with 5% AB+ human serum. The parasite populations are synchronised over a 4 hour period by flotation with a gelatine solution, followed by lysis with 5% D-sorbitol 7,8. […]. The anti-malarial activity tests are performed using Desjardins' radioactive micromethod 11. The tests are performed in triplicate, in 96-well microplates, the readings being at 1% haematocrit and 0.5-1% parasitaemia. For each test, the parasites are incubated with decreasing concentrations of drug for either 32 hours and 72 hours (4 wells contain chloroquine diphosphate as a reference). The first dilution of the drug is performed at 10 mg/ml in dimethylsulphoxide and the following dilutions are made with RPMI 1640. The parasite growth is measured with the incorporation of tritiated hypoxanthine compared to incorporation in the absence of drug (taken to be 100%). 12 and the IC50 values are determined graphically by plotting the percentage of inhibition as a function of the drug concentration.
# [7] = system: P. falciparum FcM29-Cameroon (highly chloroquine resistant strain); assay: Anti-malarial activity on P. falciparum FcM29-Cameroon strain, tritiated hypoxanthine incorporation; assay type: cell-based, Plasmodium falciparum
# Description: as §1
# [8] = system: P. falciparum Nigerian (chloroquine susceptible strain); assay: Anti-malarial activity on P. falciparum Nigerian strain, tritiated hypoxanthine incorporation; assay type: cell-based, Plasmodium falciparum
# Description: as §1
# [9] = system: P. falciparum FcB1-Colombia (chloroquine resistant strain); conditions: read-out: IC50 for chloroquine, FcB1-Columbia strain, literature refs 9,10; cited from earlier work
# [10] = system: P. falciparum FcM29-Cameroon (highly chloroquine resistant strain); conditions: read-out: IC50 for chloroquine, literature refs 9,10; cited from earlier work
# [11] = system: human Plasmodium falciparum isolates; assay: Activity on human Plasmodium falciparum isolates; assay type: cell-based
# Description: Trioxaquine-citrate 4, referred to as DU-1102, was tested on human Plasmodium falciparum isolates, some of which were chloroquine- and/or pyrimethamine-resistant.
# [12] = FcB1-Colombia (CQR), 72 hrs, read-out: IC50
# [13] = Nigerian (CQS), 32 hrs, read-out: IC50
# [14] = FcB1-Colombia (CQR), 32 hrs, read-out: IC50
# [15] = Nigerian (CQS), 72 hrs, read-out: IC50
smiles,measurement,setting,value
CC(C)C1=CC2OC3(CCC(NCCNc4ccnc5cc(Cl)ccc45)CC3)OOC2(C)CC1.O=C(O)CC(O)(CC(=O)O)C(=O)O.O=C(O)CC(O)(CC(=O)O)C(=O)O (centres unmarked) [DU-1302],LC50,[1],6 nM
same,re-emergence,[2],no observable re-emergence
same,"mutagenicity, induction of DNA repair (SOS response)",[3],Absence of mutagenicity
same,apparent toxicity,[4],does not show any apparent toxicity
Clc1ccc2c(NCCCCNC3CCC4(CC3)OOC3(c5ccccc5)CC(c5ccccc5)=CC3O4)ccnc2c1 (mixture of isomers) [Trioxaquine 9],activity compared with chloroquine and the two fragments,[5],"significantly greater than the activity of not only chloroquine, but also of each of the two fragments"
Clc1ccc2c(NCCNC3CCC4(CC3)OOC3(c5ccccc5)CC(c5ccccc5)=CC3O4)ccnc2c1 (mixture of isomers) [Trioxaquine 3],IC50,[6]; [12],9 nM
same,IC50,"[7]; FcM29-Cameroon (CQR+), 72 hrs, read-out: IC50",18 nM
same,IC50,"[8]; Nigerian (CQS), 32 hrs",1 ng/mL
same,IC50,[8]; [13],1.8 nM
same,activity compared with chloroquine and the two fragments,[5],"significantly greater than the activity of not only chloroquine, but also of each of the two fragments"
CCN(CC)CCCC(C)Nc1ccnc2cc(Cl)ccc12 (centres unmarked) [Chloroquine diphosphate],IC50,"[6]; Plasmodium falciparum, FCB1, 32 h",0.075 µg/mL
same,IC50,"[6]; Plasmodium falciparum, FCB1, 72 h",0.06 µg/mL and 116 nM
same,IC50,"[7]; Plasmodium falciparum, 32 h",0.1 µg/mL and 194 nM
same,IC50,"[7]; Plasmodium falciparum, 72 h",0.08 µg/mL and 155 nM
same,IC50,"[8]; Plasmodium falciparum, 32 h",0.045 µg/mL and 87 nM
same,IC50,"[8]; Plasmodium falciparum, 72 h",0.01 µg/mL and 19 nM
CCN(CC)CCCC(C)Nc1ccnc2cc(Cl)ccc12 (centres unmarked) [chloroquine],IC50,[9],> 100 nM
same,IC50,[10],> 100 nM
Clc1ccc2c(NCCNC3CCC4(CC3)OOC3(c5ccccc5)CC(c5ccccc5)=CC3O4)ccnc2c1.O=C(O)CC(O)(CC(=O)O)C(=O)O.O=C(O)CC(O)(CC(=O)O)C(=O)O (centres unmarked) [Trioxaquine 4],IC50,"[6]; FcB1-Colombia (CQR), 32 hrs",0.035 µg/mL
same,IC50,[6]; [14],37 nM
same,IC50,"[6]; FcB1-Colombia (CQR), 72 hrs",0.02 µg/mL
same,IC50,[6]; [12],21 nM
same,IC50,"[8]; Nigerian (CQS), 32 hrs",33 ng/mL
same,IC50,[8]; [13],35 nM
same,IC50,"[8]; Nigerian (CQS), 72 hrs",7 ng/mL
same,IC50,[8]; [15],8 nM
same,activity compared with chloroquine and the two fragments,[5],"significantly greater than the activity of not only chloroquine, but also of each of the two fragments"
same,IC50 geometric mean,[11],0.041 µg/mL
same,"relation of activity to susceptibility or resistance to other anti-malarial agents (chloroquine, pyrimethamine)",[11]; listed as DU-1102,independent of their susceptibility or their resistance; also recorded: no correlation
same,IC50,[11]; read-out: IC50 geometric mean,43 nM
O=C1CCC2(CC1)OOC1(c3ccccc3)CC(c3ccccc3)=CC1O2 (centres unmarked) [Trioxane-ketone 2],IC50,[6]; [14],113 nM
same,IC50,[6]; [12],36 nM
same,IC50,[8]; [13],149 nM
same,IC50,[8]; [15],45 nM
"NCCNc1ccnc2cc(Cl)ccc12 [Quinoline-amine1, 7-chloro-4-[N-(2-aminoethyl)amino]-quinoline]",IC50,"[6]; Plasmodium falciparum, FcB1-Colombia (CQR), 32 hrs, read-out: IC50",0.035 µg/mL
same,IC50,"[6]; Plasmodium falciparum, FcB1-Colombia (CQR), 72 hrs, read-out: IC50",0.02 µg/mL
same,IC50,"[8]; Plasmodium falciparum, Nigerian (CQS), 32 hrs, read-out: IC50",33 ng/mL
same,IC50,"[8]; Plasmodium falciparum, Nigerian (CQS), 72 hrs, read-out: IC50",7 ng/mL

# From patent US7566710B2, “Dual molecules containing a peroxide derivative, synthesis and therapeutic applications thereof” (Centre National de la Racherche Scientifique (C.N.R.S.), priority 2000, dated 2009)
